Source: ChEMBL document CHEMBL1201862, “PubChem BioAssay data set” (2004)
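Protocol summary: plate cells (96-well), add compound at 5 concentrations, incubate 48 h, interpolate endpoints linearly. GI50 is the concentration that inhibits growth by half.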 Active and inactive are the calls of the source. No stated cut-off is given here; in the data, active = GI50 up to about 1.1 µM and inactive = higher.

Tests used:
Assay in all cases: DTP human tumour cell line panel, 48 h
IGROV-1 = system: IGROV-1
HCT-116 = system: HCT-116
NCI-H522 = system: NCI-H522
M14 = system: M14
EKVX = system: EKVX
CCRF-CEM = system: CCRF-CEM
RXF 393 = system: RXF 393
MOLT-4 = system: MOLT-4
NCI-H226 = system: NCI-H226
U-251 = system: U-251
CAKI-1 = system: CAKI-1
HOP-62 = system: HOP-62
HL-60 = system: HL-60
SW-620 = system: SW-620
DMS-114 = system: DMS-114
ACHN = system: ACHN
SN12C = system: SN12C
SF-295 = system: SF-295

COC(OC)c1cc2c(cc1C=O)OCO2
GI50 (IGROV-1): > 100 µM (inactive) | GI50 (HCT-116): > 100 µM (inactive) | GI50 (NCI-H522): > 100 µM (inactive) | GI50 (M14): 48.9 µM (inactive) | GI50 (EKVX): > 100 µM (inactive) | GI50 (CCRF-CEM): > 100 µM (inactive) | GI50 (RXF 393): > 100 µM (inactive) | GI50 (MOLT-4): > 100 µM (inactive) | GI50 (NCI-H226): > 100 µM (inactive) | GI50 (U-251): > 100 µM (inactive) | GI50 (CAKI-1): 34.1 µM (inactive) | GI50 (HOP-62): > 100 µM (inactive) | GI50 (HL-60): 47.2 µM (inactive) | GI50 (SW-620): > 100 µM (inactive) | GI50 (DMS-114): > 100 µM (inactive) | GI50 (ACHN): > 100 µM (inactive) | GI50 (SN12C): > 100 µM (inactive)

COc1ccc(C(=O)Cc2cc(OC)ccc2OC)cc1
GI50 (IGROV-1): > 100 µM (inactive) | GI50 (HCT-116): > 100 µM (inactive) | GI50 (NCI-H522): 43.3 µM (inactive) | GI50 (M14): > 100 µM (inactive) | GI50 (EKVX): > 100 µM (inactive) | GI50 (CCRF-CEM): > 100 µM (inactive) | GI50 (RXF 393): 58.9 µM (inactive) | GI50 (MOLT-4): > 100 µM (inactive) | GI50 (NCI-H226): > 100 µM (inactive) | GI50 (U-251): > 100 µM (inactive) | GI50 (CAKI-1): > 100 µM (inactive) | GI50 (HOP-62): 66.1 µM (inactive) | GI50 (HL-60): > 100 µM (inactive) | GI50 (SW-620): > 100 µM (inactive) | GI50 (DMS-114): 66.8 µM (inactive) | GI50 (SF-295): 48.9 µM (inactive) | GI50 (ACHN): > 100 µM (inactive) | GI50 (SN12C): > 100 µM (inactive)

N#CCC(=O)N/N=C1/C(=O)N(c2cc(Cl)ccc2Cl)C(=O)C(=O)C1c1nc2ccccc2s1 (centres undefined)
GI50 (IGROV-1): > 100 µM (inactive) | GI50 (HCT-116): 84.7 µM (inactive) | GI50 (NCI-H522): 61 µM (inactive) | GI50 (M14): > 100 µM (inactive) | GI50 (EKVX): 43.4 µM (inactive) | GI50 (CCRF-CEM): 36.9 µM (inactive) | GI50 (RXF 393): < 0.01 µM (active) | GI50 (MOLT-4): 45.9 µM (inactive) | GI50 (NCI-H226): > 100 µM (inactive) | GI50 (U-251): 80.9 µM (inactive) | GI50 (CAKI-1): 29.5 µM (inactive) | GI50 (HOP-62): > 100 µM (inactive) | GI50 (HL-60): 43.9 µM (inactive) | GI50 (SW-620): 73.5 µM (inactive) | GI50 (DMS-114): > 100 µM (inactive) | GI50 (SF-295): 94.4 µM (inactive) | GI50 (ACHN): > 100 µM (inactive) | GI50 (SN12C): > 100 µM (inactive)

C/C(CCN(C)C)=N\OC(=O)c1ccccc1
GI50 (IGROV-1): > 100 µM (inactive) | GI50 (HCT-116): > 100 µM (inactive) | GI50 (NCI-H522): > 100 µM (inactive) | GI50 (M14): > 100 µM (inactive) | GI50 (EKVX): > 100 µM (inactive) | GI50 (CCRF-CEM): > 100 µM (inactive) | GI50 (RXF 393): > 100 µM (inactive) | GI50 (MOLT-4): > 100 µM (inactive) | GI50 (NCI-H226): > 100 µM (inactive) | GI50 (U-251): > 100 µM (inactive) | GI50 (CAKI-1): > 100 µM (inactive) | GI50 (HOP-62): > 100 µM (inactive) | GI50 (HL-60): > 100 µM (inactive) | GI50 (SW-620): > 100 µM (inactive) | GI50 (DMS-114): > 100 µM (inactive) | GI50 (SF-295): 63.7 µM (inactive) | GI50 (ACHN): > 100 µM (inactive) | GI50 (SN12C): > 100 µM (inactive)

OC(Cn1cncn1)(Cn1cncn1)c1ccc(Cl)cc1Cl
GI50 (IGROV-1): > 100 µM (inactive) | GI50 (HCT-116): > 100 µM (inactive) | GI50 (NCI-H522): > 100 µM (inactive) | GI50 (M14): > 100 µM (inactive) | GI50 (CCRF-CEM): > 100 µM (inactive) | GI50 (RXF 393): > 100 µM (inactive) | GI50 (MOLT-4): > 100 µM (inactive) | GI50 (NCI-H226): > 100 µM (inactive) | GI50 (U-251): > 100 µM (inactive) | GI50 (CAKI-1): > 100 µM (inactive) | GI50 (HOP-62): > 100 µM (inactive) | GI50 (HL-60): > 100 µM (inactive) | GI50 (SW-620): > 100 µM (inactive) | GI50 (DMS-114): > 100 µM (inactive) | GI50 (SF-295): > 100 µM (inactive) | GI50 (ACHN): > 100 µM (inactive) | GI50 (SN12C): > 100 µM (inactive)

COc1ccc(C2C(Cl)C(=O)N2NC(=O)Cc2ccccc2)cc1OC (centres undefined)
GI50 (IGROV-1): > 100 µM (inactive) | GI50 (HCT-116): > 100 µM (inactive) | GI50 (NCI-H522): > 100 µM (inactive) | GI50 (M14): > 100 µM (inactive) | GI50 (EKVX): > 100 µM (inactive) | GI50 (CCRF-CEM): > 100 µM (inactive) | GI50 (RXF 393): > 100 µM (inactive) | GI50 (MOLT-4): > 100 µM (inactive) | GI50 (NCI-H226): > 100 µM (inactive) | GI50 (U-251): > 100 µM (inactive) | GI50 (CAKI-1): > 100 µM (inactive) | GI50 (HOP-62): > 100 µM (inactive) | GI50 (HL-60): > 100 µM (inactive) | GI50 (SW-620): > 100 µM (inactive) | GI50 (DMS-114): > 100 µM (inactive) | GI50 (SF-295): > 100 µM (inactive) | GI50 (ACHN): > 100 µM (inactive) | GI50 (SN12C): > 100 µM (inactive)

COc1cc2c(cc1OC)[C@@H](C(O)c1ccccc1)NCC2 (some centres undefined)
GI50 (IGROV-1): > 100 µM (inactive) | GI50 (HCT-116): > 100 µM (inactive) | GI50 (NCI-H522): > 100 µM (inactive) | GI50 (M14): > 100 µM (inactive) | GI50 (EKVX): > 100 µM (inactive) | GI50 (CCRF-CEM): > 100 µM (inactive) | GI50 (RXF 393): > 100 µM (inactive) | GI50 (MOLT-4): > 100 µM (inactive) | GI50 (NCI-H226): > 100 µM (inactive) | GI50 (U-251): > 100 µM (inactive) | GI50 (CAKI-1): > 100 µM (inactive) | GI50 (HOP-62): > 100 µM (inactive) | GI50 (HL-60): > 100 µM (inactive) | GI50 (SW-620): > 100 µM (inactive) | GI50 (DMS-114): > 100 µM (inactive) | GI50 (SF-295): > 100 µM (inactive) | GI50 (ACHN): > 100 µM (inactive) | GI50 (SN12C): > 100 µM (inactive)
